biological target: human MRGPRD (Homo sapiens, UniProt Q8TDS7); experiment: MRGPRD antagonist activity, IP-One HTRF assay in CHO cells stably expressing human MRGPRD (versus 100 μM β-Alanine agonist); format: cell-based
Procedure: Chinese Hamster Ovary (CHO) cells stably expressing human MRGPRD (Eurofins, San Diego CA) were plated in a 384-well plate at 20,000 cells per well in 12 μL of Optimem (Fisher Scientific 11-058-021). Plates were kept in the incubator at 37° C. overnight. Antagonists were solubilized at a concentration of 10 mM in DMSO, and the agonists were solubilized to stock concentrations of either 50 mM in H2O (β-Alanine) or 10 mM in DMSO (all others) and then diluted in assay buffer (final concentrations of 5.7 mM Tris-HCl, 43 mM NaCl, 50 mM LiCl, pH=8). The concentration of DMSO was normalized across the plate. Antagonists were added to the plate using a Tecan D300 Digital Dispenser at nanoliter/picoliter volumes and 2 μL of agonists in assay buffer were added to each well for a final assay volume of 14 μL. Plates were covered and incubated for 1 h at 37° C. and then for 1 h at room temperature. IP-1 standards and HTRF detection reagents were added according to an IP-One-Gq Kit purchased from Cisbio (part number 62IPAPEJ) and incubated in the dark for 1 h at room temperature. Assay plates were read on either a Molecular Devices SpectraMax iD5 plate reader or a BMG ClarioStar plate reader. The HTRF ratio was calculated form the raw data and graphed using GraphPad Prism to calculate IC50 values. Data are expressed as average IC50 values and average percent antagonism calculated as a percent of the maximum efficacy response. For these studies, the variability of the data was assessed by determining the standard error of mean (SEM).
The activity ranges are denoted as follows: “+++++” denotes antagonist activity <100 nM; “++++” denotes antagonist activity between 100 and 500 nM; “+++” denotes activity between 500 and 1000 nM; “++” denotes activity between 1000 and 3000 nM; and “+” denotes activity >3000 nM.

human MRGPRD, sequence (Q8TDS7 whole entry): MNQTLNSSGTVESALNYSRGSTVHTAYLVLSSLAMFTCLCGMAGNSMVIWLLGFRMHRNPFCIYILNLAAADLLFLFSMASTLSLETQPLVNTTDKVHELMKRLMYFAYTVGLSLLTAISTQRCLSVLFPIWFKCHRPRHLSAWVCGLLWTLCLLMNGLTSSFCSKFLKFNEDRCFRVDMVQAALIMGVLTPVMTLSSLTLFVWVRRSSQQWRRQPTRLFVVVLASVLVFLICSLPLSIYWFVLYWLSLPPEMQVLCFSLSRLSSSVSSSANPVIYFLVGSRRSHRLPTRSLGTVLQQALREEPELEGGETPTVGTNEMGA

Row | IC50 [nM] | Structure (SMILES)
1 | 1000 to 3000 | COc1ccc(NC(=O)N2CCC[C@H](c3nc(-c4cccc(OC)c4)c4ccccn34)C2)cc1 (stereo in doubt) [Compound 5-29]
2 | 100 to 500 | COc1cccc(-c2nc([C@@H]3CCCN(C(=O)Nc4ccc(N5CCCC5)cc4)C3)n3ccccc23)c1 [Compound 1-1]
3 | < 100 | COc1cccc(-c2nc([C@@H]3CCCN(C(=O)Nc4ccc(N(C)C)cc4)C3)n3ccccc23)c1 [Compound 1-2, (R)—N-(4-(dimethylamino)phenyl)-3-(1-(3-methoxyphenyl)imidazo[1,5-a]pyridin-3-yl)piperidine-1-carboxamide]
4 | 1000 to 3000 | COc1cccc(-c2nc(C3CCCN(C(=O)N(C)c4ccccc4F)C3)n3ccccc23)c1 (centres unmarked) [Compound 1-3]
5 | 500 to 1000 | COc1cccc(-c2nc(C3CCCN(C(=O)N(C)c4cccc(F)c4)C3)n3ccccc23)c1 (centres unmarked) [Compound 1-4]
6 | 1000 to 3000 | COc1cccc(-c2nc([C@H]3CCCN(C(=O)Nc4ccc(N(C)C)cc4)C3)n3ccccc23)c1 [Compound 1-5]
7 | < 100 | COc1cccc(-c2nc([C@@H]3CCCN(C(=O)Nc4ccc(N(C)C)c(F)c4)C3)n3ccccc23)c1 [Compound 1-6]
8 | < 100 | COc1cccc(-c2nc([C@@H]3CCCN(C(=O)Nc4ccc(N(C)C)c(C)c4)C3)n3ccccc23)c1 [Compound 1-7]
9 | < 100 | COc1cccc(-c2nc([C@@H]3CCCN(C(=O)Nc4ccc(N(C)C)cc4C)C3)n3ccccc23)c1 [Compound 1-8]
10 | < 100 | COc1cccc(NC(=O)N2CCC[C@@H](c3nc(-c4cccc(OC)c4)c4ccccn34)C2)c1 [Compound 1-9]
11 | 100 to 500 | COc1cccc(-c2nc([C@@H]3CCCN(C(=O)Nc4ccc(C)c(C)c4)C3)n3ccccc23)c1 [Compound 1-10]
12 | 100 to 500 | COc1cccc(-c2nc([C@@H]3CCCN(C(=O)Nc4ccc(C)cc4F)C3)n3ccccc23)c1 [Compound 1-11]
13 | < 100 | CCc1ccc(NC(=O)N2CCC[C@@H](c3nc(-c4cccc(OC)c4)c4ccccn34)C2)cc1 [Compound 1-12]
14 | 100 to 500 | COc1cccc(-c2nc([C@@H]3CCCN(C(=O)Nc4cccc(C)c4)C3)n3ccccc23)c1 [Compound 1-13]
15 | 100 to 500 | COc1cccc(-c2nc([C@@H]3CCCN(C(=O)Nc4cccc(F)c4)C3)n3ccccc23)c1 [Compound 1-14]
16 | 100 to 500 | COc1cccc(-c2nc([C@@H]3CCCN(C(=O)Nc4ccccc4C(F)(F)F)C3)n3ccccc23)c1 [Compound 1-15]
17 | 100 to 500 | COc1cccc(-c2nc([C@@H]3CCCN(C(=O)Nc4cccc(C#N)c4)C3)n3ccccc23)c1 [Compound 1-16]
18 | < 100 | COc1ccc(NC(=O)N2CCC[C@@H](c3nc(-c4cccc(OC)c4)c4ccccn34)C2)cc1 [Compound 1-17]
19 | 100 to 500 | COc1cccc(-c2nc([C@@H]3CCCN(C(=O)Nc4ccc(C)cc4)C3)n3ccccc23)c1 [Compound 1-18]
20 | < 100 | CCN(CC)c1ccc(NC(=O)N2CCC[C@@H](c3nc(-c4cccc(OC)c4)c4ccccn34)C2)cc1 [Compound 1-19]
21 | < 100 | COc1cccc(-c2nc([C@@H]3CCCN(C(=O)Nc4ccc(C(=O)N(C)C)cc4)C3)n3ccccc23)c1 [Compound 1-20]

Row | IC50 [nM] | Structure (SMILES)
22 | 500 to 1000 | COc1cccc(-c2nc([C@@H]3CCCN(C(=O)Nc4ccccc4CN(C)C)C3)n3ccccc23)c1 [Compound 1-21]
23 | 500 to 1000 | COc1cccc(-c2nc([C@@H]3CCCN(C(=O)Nc4cccc(C(F)(F)F)c4)C3)n3ccccc23)c1 [Compound 1-22]
24 | 500 to 1000 | COc1cccc(-c2nc([C@@H]3CCCN(C(=O)Nc4cccc(OC(F)(F)F)c4)C3)n3ccccc23)c1 [Compound 1-23]
25 | < 100 | CCOc1cccc(NC(=O)N2CCC[C@@H](c3nc(-c4cccc(OC)c4)c4ccccn34)C2)c1 [Compound 1-24]
26 | < 100 | CCOc1ccc(NC(=O)N2CCC[C@@H](c3nc(-c4cccc(OC)c4)c4ccccn34)C2)cc1 [Compound 1-25]
27 | 100 to 500 | COc1cccc(-c2nc([C@@H]3CCCN(C(=O)Nc4ccc(CN(C)C)cc4)C3)n3ccccc23)c1 [Compound 1-26]
28 | 500 to 1000 | COc1cccc(-c2nc([C@@H]3CCCN(C(=O)NCCCN(C)C)C3)n3ccccc23)c1 [Compound 1-27]
29 | 100 to 500 | COc1cccc(-c2nc([C@@H]3CCCN(C(=O)Nc4nc(C(C)C)ns4)C3)n3ccccc23)c1 [Compound 1-28]
30 | 500 to 1000 | COc1cccc(-c2nc([C@@H]3CCCN(C(=O)NCCN(C)C)C3)n3ccccc23)c1 [Compound 1-29]
31 | 100 to 500 | COc1cccc(-c2nc([C@@H]3CCCN(C(=O)Nc4ccon4)C3)n3ccccc23)c1 [Compound 1-30]
32 | 100 to 500 | COc1cccc(-c2nc([C@@H]3CCCN(C(=O)Nc4ccc5ccccc5c4)C3)n3ccccc23)c1 [Compound 1-31]
33 | < 100 | COc1cccc(-c2nc([C@@H]3CCCN(C(=O)Nc4ccc5c(cnn5C)c4)C3)n3ccccc23)c1 [Compound 1-32]
34 | < 100 | COc1cccc(-c2nc([C@@H]3CCCN(C(=O)Nc4noc(C)c4C)C3)n3ccccc23)c1 [Compound 1-33]
35 | > 3000 | CNC(=O)N1CCC[C@@H](c2nc(-c3cccc(OC)c3)c3ccccn23)C1 [Compound 2-1, (R)-3-(1-(3-methoxyphenyl)imidazo[1,5-a]pyridin-3-yl)-N-methylpiperidine-1-carboxamide]
36 | > 3000 | CNC(=O)N1CCC[C@H](c2nc(-c3cccc(OC)c3)c3ccccn23)C1 [Compound 2-2]
37 | 100 to 500 | COc1cccc(-c2nc(C3CCCN(C(=O)Nc4ccc(F)cc4)C3)n3ccccc23)c1 (centres unmarked) [Compound 3-1]
38 | 100 to 500 | COc1cccc(-c2nc(C3CCCN(C(=O)Nc4cccc(C)c4)C3)n3ccccc23)c1 (centres unmarked) [Compound 3-2]
39 | 100 to 500 | COc1cccc(-c2nc(C3CCCN(C(=O)Nc4cccc(F)c4)C3)n3ccccc23)c1 (centres unmarked) [Compound 3-3]
40 | 1000 to 3000 | COc1cccc(-c2nc(C3CCCN(C(=O)Nc4ccccc4C)C3)n3ccccc23)c1 (centres unmarked) [Compound 3-4]
41 | 100 to 500 | COc1cccc(-c2nc(C3CCCN(C(=O)Nc4ccc(C)cc4)C3)n3ccccc23)c1 (centres unmarked) [Compound 3-5]
42 | 100 to 500 | COc1cccc(-c2nc(C3CCCN(C(=O)Nc4ccccc4)C3)n3ccccc23)c1 (centres unmarked) [Compound 3-6]

Row | IC50 [nM] | Structure (SMILES)
43 | 500 to 1000 | COc1cccc(-c2nc(C3CCCN(C(=O)Nc4ccccc4Cl)C3)n3ccccc23)c1 (centres unmarked) [Compound 3-7]
44 | 100 to 500 | COc1cccc(-c2nc(C3CCCN(C(=O)Nc4ccccc4OC)C3)n3ccccc23)c1 (centres unmarked) [Compound 3-8]
45 | 100 to 500 | CCNC(=O)N1CCCC(c2nc(-c3cccc(OC)c3)c3ccccn23)C1 (centres unmarked) [Compound 3-9]
46 | 500 to 1000 | COc1cccc(-c2nc(C3CCCN(C(=O)NC(C)(C)C)C3)n3ccccc23)c1 (centres unmarked) [Compound 3-10]
47 | > 3000 | COc1cccc(-c2nc(C3CCCN(C(=O)NC4CC4)C3)n3ccccc23)c1 (centres unmarked) [Compound 3-11]
48 | 100 to 500 | COc1cccc(-c2nc(C3CCCN(C(=O)Nc4ccc(OC)cc4C)C3)n3ccccc23)c1 (centres unmarked) [Compound 3-12]
49 | > 3000 | CNC(=O)N1CCCC(c2nc(-c3cccc(OC)c3)c3ccccn23)C1 (centres unmarked) [Compound 3-13]
50 | > 3000 | COc1cccc(-c2nc(C3CCCN(C(=O)NCC4CC4)C3)n3ccccc23)c1 (centres unmarked) [Compound 3-14]
51 | > 3000 | CCc1ccccc1NC(=O)N1CCCC(c2nc(-c3cccc(OC)c3)c3ccccn23)C1 (centres unmarked) [Compound 3-15]
52 | 100 to 500 | COc1cccc(NC(=O)N2CCCC(c3nc(-c4cccc(OC)c4)c4ccccn34)C2)c1 (centres unmarked) [Compound 3-16]
53 | 500 to 1000 | COc1cccc(-c2nc(C3CCCN(C(=O)Nc4cccc(Cl)c4)C3)n3ccccc23)c1 (centres unmarked) [Compound 3-17]
54 | > 3000 | CCc1cccc(NC(=O)N2CCCC(c3nc(-c4cccc(OC)c4)c4ccccn34)C2)c1 (centres unmarked) [Compound 3-18]
55 | 100 to 500 | COc1ccc(NC(=O)N2CCCC(c3nc(-c4cccc(OC)c4)c4ccccn34)C2)cc1 (centres unmarked) [Compound 3-19]
56 | 500 to 1000 | COc1cccc(-c2nc(C3CCCN(C(=O)Nc4ccc(Cl)cc4)C3)n3ccccc23)c1 (centres unmarked) [Compound 3-20]
57 | 100 to 500 | COc1cccc(-c2nc(C3CCCN(C(=O)Nc4cccc(C#N)c4)C3)n3ccccc23)c1 (centres unmarked) [Compound 3-21]
58 | 100 to 500 | CCc1ccc(NC(=O)N2CCCC(c3nc(-c4cccc(OC)c4)c4ccccn34)C2)cc1 (centres unmarked) [Compound 3-22]
59 | 100 to 500 | COc1cccc(-c2nc(C3CCCN(C(=O)Nc4ccc(C)c(C)c4)C3)n3ccccc23)c1 (centres unmarked) [Compound 3-23]
60 | 100 to 500 | COc1cccc(-c2nc(C3CCCN(C(=O)Nc4cccc(N(C)C)c4)C3)n3ccccc23)c1 (centres unmarked) [Compound 3-24]
61 | < 100 | COc1cccc(-c2nc(C3CCCN(C(=O)Nc4ccc(N(C)C)cc4)C3)n3ccccc23)c1 (centres unmarked) [Compound 3-25, N-(4-(dimethylamino)phenyl)-3-(1-(3-methoxyphenyl)imidazo[1,5-a]pyridin-3-yl)piperidine-1-carboxamide]
62 | 100 to 500 | COc1cccc(-c2nc(C3CCCN(C(=O)Nc4cccc(OC)c4C)C3)n3ccccc23)c1 (centres unmarked) [Compound 3-26]

Source: patent US20240246980A1, “MODULATORS OF MAS-RELATED G-PROTEIN RECEPTOR D AND RELATED PRODUCTS AND METHODS” (Escient Pharmaceuticals, Inc., priority 2022, published 2024)
